Holding throughout (format): cell-based
One assay concerns the target T1, recombinant CYP-17 (Homo sapiens, UniProt P05093).
T1 construct: expressed in transfected cells
T1 sequence (P05093 1-508): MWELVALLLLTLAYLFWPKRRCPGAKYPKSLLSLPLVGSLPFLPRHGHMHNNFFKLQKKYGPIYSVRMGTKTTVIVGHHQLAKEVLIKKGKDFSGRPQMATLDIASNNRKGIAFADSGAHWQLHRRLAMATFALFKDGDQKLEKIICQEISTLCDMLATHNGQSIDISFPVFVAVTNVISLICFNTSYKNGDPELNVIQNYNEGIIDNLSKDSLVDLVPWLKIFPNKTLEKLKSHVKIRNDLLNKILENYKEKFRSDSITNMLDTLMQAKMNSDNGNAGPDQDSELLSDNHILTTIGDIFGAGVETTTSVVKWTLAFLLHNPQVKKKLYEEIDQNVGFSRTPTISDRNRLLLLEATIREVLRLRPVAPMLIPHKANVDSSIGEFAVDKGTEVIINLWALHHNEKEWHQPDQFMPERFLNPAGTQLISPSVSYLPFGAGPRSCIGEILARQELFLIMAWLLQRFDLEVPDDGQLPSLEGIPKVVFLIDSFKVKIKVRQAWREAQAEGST
In words: Cyp17 assay: 3H-acetic acid release from [21-3H] 17α-hydroxyl-Pregnenolone in AD293 cells. The note with it: AD293 cells stably over-expressing recombinant CYP-17; eight concentrations 10 μM to 4.5 nM. Here is the method:
Cyp17 assay protocol: AD293 cells that stably over-express recombinant CYP-17 were seeded in 96 well plates coated with poly D-lysine (15,000 cell per well) and incubated at 37° C. for 24 hours in Dulbecco's Modified Eagle Medium (DMEM) with Fetal Bovine Serum (FBS) that is stripped of hormones by charcoal treatment. The media is then removed, the cells are washed once with Phosphate buffer saline solution, and 50 μL Dulbecco's Modified Eagle Medium (DMEM) with Fetal Bovine Serum (FBS) that is stripped of hormones by charcoal treatment is added. Compounds of the disclosure are then added to the wells in eight concentration spanning 10 μM to 4.5 nM, and the plates are incubated for an additional 60 minutes at 37° C. [21-^3H] 17α-hydroxyl-Pregnenolone is then added (50 nCi per well, 31.25 nM) and the plates are incubated for an additional 4 hours at 37° C. The media is then collected, 200 μL of chloroform is added, and the mixture is shaken for 1 hour. The aqueous layer is then separated and analyzed for the presence of ^3H-acetic acid using a Perkin Elmer Topcount NXT to determine IC50s of the compounds of the disclosure.

For a further assay, the target named is T2, recombinant CYP-21 (Homo sapiens, UniProt P08686).
T2 construct: expressed in transfected cells
T2 sequence (P08686 1-495): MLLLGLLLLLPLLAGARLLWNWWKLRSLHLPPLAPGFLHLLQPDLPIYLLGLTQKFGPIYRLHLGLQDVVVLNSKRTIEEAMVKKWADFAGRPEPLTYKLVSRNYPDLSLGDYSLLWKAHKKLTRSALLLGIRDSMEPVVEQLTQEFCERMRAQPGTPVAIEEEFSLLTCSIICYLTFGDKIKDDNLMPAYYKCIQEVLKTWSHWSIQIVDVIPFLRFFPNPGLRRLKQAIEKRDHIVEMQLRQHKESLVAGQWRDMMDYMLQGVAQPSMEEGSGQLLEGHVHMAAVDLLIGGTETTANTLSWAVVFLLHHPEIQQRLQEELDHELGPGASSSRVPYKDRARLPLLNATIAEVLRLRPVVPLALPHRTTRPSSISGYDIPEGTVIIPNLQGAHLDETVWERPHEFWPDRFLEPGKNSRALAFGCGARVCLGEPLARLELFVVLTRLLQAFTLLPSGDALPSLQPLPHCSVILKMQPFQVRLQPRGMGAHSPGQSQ
The assay is described as follows: Cyp21 assay: 11-deoxycortisol formation from 17-OH Progesterone in AD293 cells, LC/MS. The note with it: AD293 cells stably over-expressing recombinant CYP-21; eight concentrations 10 μM to 4.5 nM. As for the experimental part: Cyp21 assay protocol: AD293 cells that stably over-express recombinant CYP-21 were seeded in 96 well plates coated with poly D-lysine (10,000 cell per well) and incubated at 37° C. for 24 hours in Dulbecco's Modified Eagle Medium (DMEM) with Fetal Bovine Serum (FBS) that is stripped of hormones by charcoal treatment. The media is then removed, the cells are washed once with Phosphate buffer saline solution, and 50 μL Dulbecco's Modified Eagle Medium (DMEM) with Fetal Bovine Serum (FBS) that is stripped of hormones by charcoal treatment is added. Compounds of the disclosure are then added to the wells in eight concentration spanning 10 μM to 4.5 nM, and the plates are incubated for an additional 60 minutes at 37° C. 17-OH Progesterone is then added ([…]) and the plates are incubated for an additional 45 minutes at 37° C. After incubation, 50 uL of the supernatant (medium) is transferred into a fresh plate and 150 uL of an acetonitrile solution containing 200 ng/ml of Telmisartan is added. The sample is mixed and then placed in a centrifuge at 2000 rpm for 5 minutes.

Another assay concerns the target T3, recombinant CYP-11 (Homo sapiens, UniProt P15538).
T3 construct: expressed in transfected cells
T3 sequence (P15538 25-503): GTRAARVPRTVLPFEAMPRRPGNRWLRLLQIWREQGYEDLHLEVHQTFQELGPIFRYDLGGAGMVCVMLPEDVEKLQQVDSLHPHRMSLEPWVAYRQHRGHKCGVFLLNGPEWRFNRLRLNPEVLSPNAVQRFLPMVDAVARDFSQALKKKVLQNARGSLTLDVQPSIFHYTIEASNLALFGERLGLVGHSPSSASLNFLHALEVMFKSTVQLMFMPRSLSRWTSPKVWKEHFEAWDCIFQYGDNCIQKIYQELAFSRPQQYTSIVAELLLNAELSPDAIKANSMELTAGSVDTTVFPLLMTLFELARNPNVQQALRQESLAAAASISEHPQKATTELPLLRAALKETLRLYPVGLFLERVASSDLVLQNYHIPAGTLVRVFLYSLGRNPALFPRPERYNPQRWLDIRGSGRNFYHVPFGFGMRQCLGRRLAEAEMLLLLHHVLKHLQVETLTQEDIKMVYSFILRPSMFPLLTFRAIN
In words: Cyp11 assay: cortisol formation from 11-deoxycortisol in AD293 cells, LC/MS. Particulars: AD293 cells stably over-expressing recombinant CYP-11; eight concentrations 10 μM to 4.5 nM. As for the experimental part: Cyp11 assay protocol: AD293 cells that stably over-express recombinant CYP-11 were seeded in 96 well plates coated with poly D-lysine (15,000 cell per well) and incubated at 37° C. for 24 hours in Dulbecco's Modified Eagle Medium (DMEM) with Fetal Bovine Serum (FBS) that is stripped of hormones by charcoal treatment. The media is then removed, the cells are washed once with Phosphate buffer saline solution, and 50 μL Dulbecco's Modified Eagle Medium (DMEM) with Fetal Bovine Serum (FBS) that is stripped of hormones by charcoal treatment is added. Compounds of the disclosure are then added to the wells in eight concentration spanning 10 μM to 4.5 nM, and the plates are incubated for an additional 60 minutes at 37° C. 11-deoxycortisol is then added ([…]) and the plates are incubated for an additional 12 hours at 37° C. After incubation, 50 uL of the supernatant (medium) is transferred into a fresh plate and 150 uL of an acetonitrile solution containing 200 ng/ml of Telmisartan is added. The sample is mixed and then placed in a centrifuge at 2000 rpm for 5 minutes. 100 uL of the supernatant is transferred into a fresh 96 well deep well plate, 100 uL of 1:1 methanol: water was added, the solution was mixed and then analyzed by LC/MS for the presence of cortisol using an Agilent 1200 RRLC/ABSCIEX API4000 LC-MS or Shimadzu Prominance/ABSCIEX API4000 LC-MS to determine IC50s of the compounds of the disclosure.

Each structure is given as a SMILES string.

In the case of `COc1cccc(-c2ccc(C(OC)c3ccncc3)cc2)c1` (stereo not drawn) [Entry 34, 4-(methoxy(3′-methoxy-[1,1′-biphenyl]-4-yl)methyl)pyridine], the IC50 at recombinant CYP-17 turned out to be 510 nM; at recombinant CYP-21, 620 nM; at recombinant CYP-11 it was 0.48 µM.

`COc1ccc(-c2ccc(C(c3ccncc3)N3CCN(C)CC3)cc2)cc1OC` (stereo not drawn) [Entry 12, 1-((3′4′-dimethoxy-[1,1′-biphenyl]-4-yl)(pyridin-4-yl)methyl)-4-methylpiperazine]: the IC50 on recombinant CYP-17 was 77 nM; at recombinant CYP-21, ≥ 10000 nM.

Consider `COc1cc(F)ccc1-c1ccc(C(c2ccncc2)N2CCN(C(C)=O)CC2)cc1` (stereo not drawn) [Entry 27, 1-(4-((4′-fluoro-2′-methoxy-[1,1′-biphenyl]-4-yl)(pyridin-4-yl)methyl)piperazin-l-yl)ethanone], for which the half-inhibitory concentration (IC50) was 22 nM on recombinant CYP-17, ≥ 10000 nM at recombinant CYP-21 and ≥ 10 µM on recombinant CYP-11.

Consider `COc1cc(F)ccc1-c1ccc(C(c2ccncc2)N2CCOCC2)cc1` (stereo not drawn) [Entry 17, 4-((4′-fluoro-2′-methoxy-[1,1′-biphenyl]-4-yl)(pyridin-4-yl)methyl)morpholine], for which the half-maximal inhibitory concentration (IC50) on recombinant CYP-17 was 28 nM; on recombinant CYP-21, ≥ 10000 nM; at recombinant CYP-11 it was ≥ 10 µM.

Regarding `COc1cc(F)ccc1-c1ccc(C(c2ccncc2)N2CCN(C)CC2)cc1` (stereo not drawn) [Entry 20, 1-((4′-fluoro-2′-methoxy-[1,1′-biphenyl]-4-yl)(pyridin-4-yl)methyl)-4-methylpiperazine], the IC50 on recombinant CYP-17 was 107 nM; on recombinant CYP-21 it was ≥ 10000 nM; on recombinant CYP-11 it was ≥ 10 µM.

Take `CCOC(c1ccncc1)c1ccc(-c2ccc(OC)c(OC)c2)cc1` (stereo not drawn) [Entry 14, 4-(ethoxy(3′,4′-dimethoxy-[1,1′-biphenyl]-4-yl)methyl)pyridine]: the half-inhibitory concentration (IC50) at recombinant CYP-17 amounted to 26 nM; at recombinant CYP-21, 190 nM.

Take `COc1cc(F)ccc1-c1ccc(C2(c3ccncc3)OCC(C)CO2)cc1` (stereo not drawn) [Entry 5, 4-[2-(4′-Fluoro-2′-methoxy-biphenyl-4-yl)-5-methyl-[1,3]dioxan-2-yl]-pyridine]: the IC50 at recombinant CYP-17 was 126 nM; at recombinant CYP-21, 520 nM; on recombinant CYP-11, ≥ 10 µM.

On to `COc1ccc(-c2ccc(C(F)(F)c3ccncc3)cc2)cc1OC` [Entry 8], for which the IC50 was 34 nM on recombinant CYP-17, 408 nM at recombinant CYP-21 and ≥ 10 µM at recombinant CYP-11.

As for `COc1ccc(-c2ccc(C(OC(C)C)c3ccncc3)cc2)cc1OC` (stereo not drawn) [Entry 13, 4-(isopropoxy(3′,4′-dimethoxy-[1,1′-biphenyl]-4-yl)methyl)pyridine], the 50% inhibitory concentration (IC50) at recombinant CYP-17 came to 10 nM; on recombinant CYP-21, 210 nM.

For `COc1cc(F)ccc1-c1ccc(C(F)(F)c2ccncc2)cc1` [Entry 2, 4-[Difluoro-(4′-fluoro-2′-methoxy-biphenyl-4-yl)-methyl]-pyridine], the IC50 at recombinant CYP-17 is 2200 nM; at recombinant CYP-21 it was 236 nM; at recombinant CYP-11, ≥ 10 µM.

For the molecule `COc1ccc(-c2ccc(C(c3ccncc3)N3CCCCC3)cc2)cc1OC` (stereo not drawn) [Entry 9], the concentration for half-maximal inhibition (IC50) stood at 14 nM at recombinant CYP-17 and 1200 nM at recombinant CYP-21.

On to `COc1cc(F)ccc1-c1ccc(C(NCCNC(=O)OC(C)(C)C)c2ccncc2)cc1` (stereo not drawn) [Entry 25, tert-butyl(2-(((4′-fluoro-2′-methoxy-[1,1′-biphenyl]-4-yl)(pyridin-4-yl)methyl)amino)ethyl)carbamate], for which the values for the concentration for half-maximal inhibition (IC50) at recombinant CYP-17, at recombinant CYP-21 and at recombinant CYP-11 were 31 nM, 4000 nM and 4.2 µM, respectively.

On to `COc1cc(F)ccc1-c1ccc(C(OC)c2ccncc2)cc1` (stereo not drawn) [Entry 33, 4-((4′-fluoro-2′-methoxy-[1,1′-biphenyl]-4-yl)(methoxy)methyl)pyridine], for which the values for the IC50 on recombinant CYP-17, on recombinant CYP-21 and at recombinant CYP-11 were ≥ 10000 nM, 524 nM and ≥ 10 µM, respectively.

Consider `COc1ccc(-c2ccc(C(c3ccncc3)N3CCCC3)cc2)cc1OC` (stereo not drawn) [Entry 11, 4-((3′4′-dimethoxy-[1,1′-biphenyl]-4-yl)(pyrrolidin-1-yl)methyl)pyridine], for which the 50% inhibitory concentration (IC50) at recombinant CYP-17 came out at 10 nM; at recombinant CYP-21, 2500 nM.

With `COc1ccc(-c2ccc(C(c3ccncc3)N3CCOCC3)cc2)cc1OC` (stereo not drawn) [Entry 10, 4-((3′,4′-Dimethoxy-[1,1′-biphenyl]-4-yl)(pyridin-4-yl)methyl)morpholine], the IC50 was 10 nM at recombinant CYP-17 and 1800 nM on recombinant CYP-21.

Consider `COc1cc(F)ccc1-c1ccc(C2(c3ccncc3)OCCO2)cc1` [Entry 4, 4-[2-(4′-Fluoro-2′-methoxy-biphenyl-4-yl)-[1,3]dioxolan-2-yl]-pyridine], for which the IC50 at recombinant CYP-21 was 320 nM; at recombinant CYP-11 it was ≥ 10 µM.

For `COc1ccc(-c2ccc(C(OC)c3ccncc3)cc2)cc1OC` (stereo not drawn) [Entry 15, 4-(methoxy(3′,4′-dimethoxy-[1,1′-biphenyl]-4-yl)methyl)pyridine], the concentration for half-maximal inhibition (IC50) on recombinant CYP-17 is 11 nM; at recombinant CYP-21 it was 180 nM.

On to `COc1cc(F)ccc1-c1ccc(C2(c3ccncc3)OCCO2)cc1` [Entry 3, 4-[2-(4′-Fluoro-2′-methoxy-biphenyl-4-yl)-[1,3]dioxolan-2-yl]-pyridine], for which the results for the 50% inhibitory concentration (IC50) at recombinant CYP-21 and at recombinant CYP-11 were 820 nM and 2 µM, respectively.

One may read the IC50 as the midpoint of a concentration-inhibition curve.
